Measurements published in the supplement of paper PMC11451515.

System: SEM cells
Assay: cell viability relative to DMSO control; higher = less cytotoxic
Settings: 48 h
Procedure, shortened: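 In 1536-well plates, 5 μl of leukemia cells were seeded per well: 500 cells/well for NOMO1 or SEM and 1000 cells/well for P12-Ichikawa. Each line had first been adapted for at least four passages in each medium. Library compounds in DMSO were pin-dosed at 11 threefold concentrations between 47 μM and 0.79 nM, and CellTiter-Glo One luminescence was read after 48 h at 37°C. Viability is a per-plate percentage relative to DMSO wells, with cell-free wells as background.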

[1] = HPLM + 10% dialyzed FBS, 0.000781 µM
[2] = HPLM + 10% dialyzed FBS, 0.00234 µM
[3] = HPLM + 10% dialyzed FBS, 0.00702 µM
[4] = HPLM + 10% dialyzed FBS, 0.0211 µM
[5] = HPLM + 10% dialyzed FBS, 0.0632 µM
[6] = HPLM + 10% dialyzed FBS, 0.19 µM
[7] = HPLM + 10% dialyzed FBS, 0.569 µM
[8] = HPLM + 10% dialyzed FBS, 1.71 µM
[9] = HPLM + 10% dialyzed FBS, 5.12 µM
[10] = HPLM + 10% dialyzed FBS, 15.4 µM
[11] = HPLM + 10% dialyzed FBS, 46.1 µM
[12] = RPMI 5 mM glucose + 10% FBS, 0.000781 µM
[13] = RPMI 5 mM glucose + 10% FBS, 0.00234 µM
[14] = RPMI 5 mM glucose + 10% FBS, 0.00702 µM
[15] = RPMI 5 mM glucose + 10% FBS, 0.0211 µM
[16] = RPMI 5 mM glucose + 10% FBS, 0.0632 µM
[17] = RPMI 5 mM glucose + 10% FBS, 0.19 µM
[18] = RPMI 5 mM glucose + 10% FBS, 0.569 µM
[19] = RPMI 5 mM glucose + 10% FBS, 1.71 µM
[20] = RPMI 5 mM glucose + 10% FBS, 5.12 µM
[21] = RPMI 5 mM glucose + 10% FBS, 15.4 µM
[22] = RPMI 5 mM glucose + 10% FBS, 46.1 µM
[23] = RPMI 5 mM glucose + 10% dialyzed FBS, 0.000781 µM
[24] = RPMI 5 mM glucose + 10% dialyzed FBS, 0.00234 µM
[25] = RPMI 5 mM glucose + 10% dialyzed FBS, 0.00702 µM
[26] = RPMI 5 mM glucose + 10% dialyzed FBS, 0.0211 µM
[27] = RPMI 5 mM glucose + 10% dialyzed FBS, 0.0632 µM
[28] = RPMI 5 mM glucose + 10% dialyzed FBS, 0.19 µM
[29] = RPMI 5 mM glucose + 10% dialyzed FBS, 0.569 µM
[30] = RPMI 5 mM glucose + 10% dialyzed FBS, 1.71 µM
[31] = RPMI 5 mM glucose + 10% dialyzed FBS, 5.12 µM
[32] = RPMI 5 mM glucose + 10% dialyzed FBS, 15.4 µM
[33] = RPMI 5 mM glucose + 10% dialyzed FBS, 46.1 µM

SMILES | cell viability [1] [%] | cell viability [2] [%] | cell viability [3] [%] | cell viability [4] [%] | cell viability [5] [%] | cell viability [6] [%] | cell viability [7] [%] | cell viability [8] [%] | cell viability [9] [%] | cell viability [10] [%] | cell viability [11] [%] | cell viability [12] [%] | cell viability [13] [%] | cell viability [14] [%] | cell viability [15] [%] | cell viability [16] [%] | cell viability [17] [%] | cell viability [18] [%] | cell viability [19] [%] | cell viability [20] [%] | cell viability [21] [%] | cell viability [22] [%] | cell viability [23] [%] | cell viability [24] [%] | cell viability [25] [%] | cell viability [26] [%] | cell viability [27] [%] | cell viability [28] [%] | cell viability [29] [%] | cell viability [30] [%] | cell viability [31] [%] | cell viability [32] [%] | cell viability [33] [%]
C[S+](=O)([O-])c1ccc(Oc2cc(F)cc(C#N)c2)c2c1[C@H](O)C(F)(F)C2 | 73.5 | 97.9 | 101 | 101 | 108 | 105 | 103 | 106 | 111 | 106 | 87.7 | 93.8 | 117 | 152 | 140 | 138 | 155 | 144 | 156 | 141 | 158 | 124 | 76.9 | 112 | 121 | 105 | 124 | 121 | 106 | 128 | 106 | 120 | 84.9
CC(C)(O)c1cc2nc(-c3cnc(N)nc3)nc(N3CCOCC3)c2s1 | 122 | 125 | 99.7 | 113 | 106 | 106 | 77.2 | 59.9 | 44.5 | 41 | 38 | 82.9 | 79.1 | 74.3 | 76 | 78.2 | 68.4 | 57.1 | 39.1 | 29.1 | 26.7 | 23.3 | 106 | 113 | 97.7 | 107 | 105 | 94.7 | 81.4 | 52.3 | 48.1 | 47.8 | 37.3
CCOc1ccc(Cc2cc([C@@H]3O[C@H](CO)[C@@H](O)[C@H](O)[C@H]3O)ccc2Cl)cc1 | 113 | 108 | 120 | 107 | 126 | 125 | 117 | 121 | 115 | 128 | 113 | 102 | 110 | 110 | 89.5 | 106 | 124 | 112 | 121 | 121 | 115 | 118 | 116 | 104 | 128 | 85.6 | 117 | 124 | 129 | 122 | 119 | 117 | 105
CN1CCN(CCCN2c3ccccc3Sc3ccc(C(F)(F)F)cc32)CC1 | 74.1 | 85.4 | 88.1 | 103 | 97.3 | 101 | 106 | 105 | 107 | 102 | 106 | 83.1 | 91.4 | 90.7 | 93.9 | 94.4 | 100 | 101 | 99.4 | 98.6 | 105 | 101 | 90.6 | 94.2 | 89.9 | 94.4 | 102 | 102 | 92.7 | 104 | 107 | 112 | 86.8
CN1CCN(C(=O)O[C@H]2c3nccnc3C(=O)N2c2ccc(Cl)cn2)CC1 | 103 | 105 | 99.8 | 104 | 101 | 89 | 108 | 97.9 | 105 | 39.8 | 95.8 | 101 | 106 | 109 | 111 | 109 | 96.6 | 99.9 | 116 | 108 | 43.4 | 89 | 110 | 105 | 113 | 111 | 102 | 105 | 110 | 110 | 103 | 30.6 | 95.6
CN1CCN(CCOc2cc(OC3CCOCC3)c3c(Nc4c(Cl)ccc5c4OCO5)ncnc3c2)CC1 | 106 | 119 | 115 | 118 | 122 | 126 | 113 | 116 | 78.4 | 61.6 | 30.3 | 121 | 120 | 128 | 110 | 128 | 109 | 85.5 | 109 | 62.9 | 34.3 | 19.7 |  |  |  |  |  |  |  |  |  |  | 
C=CCc1ccc(O)c(-c2ccc(O)c(CC=C)c2)c1 | 103 | 107 | 109 | 95.3 | 120 | 112 | 105 | 56.1 | 40.6 | 40.4 | 37.6 | 78.6 | 88.8 | 93.2 | 85.1 | 93.6 | 108 | 79.1 | 20 | 14.7 | 21.4 | 17.6 | 98.8 | 101 | 109 | 89.6 | 109 | 107 | 94 | 27.2 | 20.6 | 21.4 | 24.6
COc1cccc2c1CCCC2CCCN1CCN(C2CCCCC2)CC1 (stereo not given) | 88.4 | 85 | 80.9 | 91.1 | 91.6 | 110 | 96.9 | 88.8 | 97.1 | 83.5 | 55.3 | 87.8 | 85.6 | 89.9 | 91.1 | 101 | 107 | 103 | 97 | 81.3 | 79.1 | 42.9 | 87.7 | 83.3 | 97 | 102 | 111 | 114 | 104 | 91 | 96.7 | 87.6 | 52.5
CNC(=O)CN1CCC(Oc2cc3c(Nc4cccc(Cl)c4F)ncnc3cc2OC)CC1 | 104 | 110 | 110 | 135 | 112 | 122 | 128 | 130 | 121 | 129 | 104 | 117 | 128 | 116 | 118 | 120 | 130 | 130 | 124 | 125 | 122 | 84.9 | 114 | 113 | 120 | 141 | 138 | 152 | 140 | 149 | 125 | 138 | 88.8
N#C[C@H](O[C@@H]1O[C@H](CO[C@@H]2O[C@H](CO)[C@@H](O)[C@H](O)[C@H]2O)[C@@H](O)[C@H](O)[C@H]1O)c1ccccc1 | 114 | 103 | 113 | 127 | 115 | 118 | 108 | 102 | 110 | 114 | 41.8 | 106 | 98.3 | 120 | 112 | 99.8 | 102 | 112 | 94.8 | 94.5 | 95.7 | 20.6 | 97.4 | 104 | 97.4 | 122 | 99 | 99.7 | 97.5 | 101 | 91.4 | 92.2 | 15.3
CN(C)C(=O)C(CCN1CCC(O)(c2ccc(Cl)cc2)CC1)(c1ccccc1)c1ccccc1 | 68.1 | 109 | 117 | 130 | 127 | 121 | 122 | 117 | 108 | 86.6 | 23.5 | 57.8 | 108 | 141 | 127 | 114 | 127 | 140 | 117 | 110 | 75.5 | 10.3 |  |  |  |  |  |  |  |  |  |  | 
NC(=O)c1ncn([C@@H]2O[C@H](CO)[C@@H](O)[C@H]2O)c1O | 128 | 118 | 82.8 | 120 | 117 | 117 | 115 | 130 | 118 | 123 | 104 | 112 | 127 | 89.1 | 137 | 131 | 131 | 115 | 118 | 121 | 117 | 114 | 98.7 | 104 | 85.8 | 128 | 121 | 104 | 112 | 115 | 113 | 116 | 113
N#C/C(C(=O)c1ccc(Cl)cc1Cl)=C1/NC(=O)c2ccc(Cl)cc2N1 | 124 | 132 | 124 | 125 | 129 | 121 | 123 | 112 | 110 | 117 | 111 |  |  |  |  |  |  |  |  |  |  |  | 99.5 | 125 | 131 | 126 | 127 | 108 | 111 | 137 | 79.5 | 105 | 108
CCOC1=CC=CC=C1N\2C(=O)C3=C(C=CC=C3)\N=C2C(C)N4CCN(CC4)C(=O)COC5=CC=C(Cl)C=C5 (stereo not given) | 112 | 111 | 111 | 123 | 114 | 115 | 104 | 26.1 | 9.76 | 5.2 | 3.06 | 124 | 115 | 108 | 101 | 110 | 114 | 28 | 6.16 | 4.12 | 3.03 | 1.64 | 113 | 131 | 119 | 116 | 125 | 136 | 68.6 | 9.93 | 6.21 | 4.51 | 2.93
CCOC(=O)Nc1ccc(NCc2ccc(F)cc2)nc1N | 111 | 104 | 119 | 102 | 105 | 117 | 94.9 | 114 | 99.9 | 115 | 101 | 117 | 121 | 119 | 117 | 125 | 118 | 118 | 116 | 109 | 116 | 65.3 | 115 | 98.9 | 120 | 128 | 131 | 128 | 138 | 113 | 104 | 115 | 80.2
N[S+](=O)([O-])OC[C@@H]1C[C@@H](n2ccc3c(N[C@H]4CCc5ccccc54)ncnc32)C[C@@H]1O | 96.3 | 98.3 | 104 | 94.2 | 105 | 122 | 101 | 53.1 | 27.8 | 14.2 | 7.9 | 101 | 121 | 119 | 101 | 101 | 117 | 113 | 48.4 | 24.5 | 10.3 | 8.49 | 90.8 | 95.4 | 95.7 | 92.1 | 97.3 | 111 | 103 | 35.8 | 23.8 | 12.1 | 8.74
